From patent publication US20140038181A1, “CHEMICALLY SUBSTITUTED THERMOSENSITIVE PROBES AND COFACTORS FOR HOT START LIGATION” (TRILINK BIOTECHNOLOGIES, priority 2011, published 2014)

Experiment: Thermal conversion of 2′,3′-substituted ATP to unsubstituted ATP in ligase buffer at 95° C. (HPLC)
Type: physicochemical
Conditions: for Concentration of unsubstituted ATP: 1 mM 2′,3′-substituted ATP
Experimental: The reactions were monitored by analysis of the aliquot of incubated mixture by reverse-phase and anion-exchange HPLC.

CC(C)(C)OCCO[C@@H]1[C@H](OCCOC(C)(C)C)[C@@H](COP(=O)(O)OP(=O)(O)OP(=O)(O)O)O[C@H]1n1cnc2c(N)ncnc21 [2′,3′-TBE-substituted ATP, 2′,3′-O-bis-[2-(tert-butoxy)]ethyl-adenosine-5′-triphosphate]
Concentration of unsubstituted ATP (ligase buffer pH 7.5, 5 min): 569 µM
Concentration of unsubstituted ATP (ligase buffer pH 7.5, 10 min): 857 µM
Concentration of unsubstituted ATP (ligase buffer pH 7.5, 20 min): 970 µM
cofactor molecules converted to the unmodified ATP (2 min, ligation buffer): about 20%
conversion to unmodified ATP (20 min, ligation buffer): more than 85%
